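Cells were grown in 96-well plates and exposed to each compound for 48 hours at five concentrations; endpoints were interpolated linearly between bracketing concentrations, or set to the highest concentration if not reached. Abbreviation: GI50, concentration required for 50% inhibition of growth. Definition used: TGI = concentration required for complete inhibition of growth.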
Key:
Assay in all cases: NCI-60 cell line screen, 48 h
OVCAR-4 ovarian = system: OVCAR-4 ovarian
UACC-62 melanoma = system: UACC-62 melanoma
RXF 393 renal = system: RXF 393 renal
SF-295 CNS = system: SF-295 CNS
SNB-19 CNS = system: SNB-19 CNS
SF-268 CNS = system: SF-268 CNS
SK-MEL-2 melanoma = system: SK-MEL-2 melanoma
786-0 renal = system: 786-0 renal
UO-31 renal = system: UO-31 renal
HCT-116 colon = system: HCT-116 colon

## O=C1NC(=NCCc2cccc(Cl)c2)S/C1=C\c1ccc2ncccc2c1
OVCAR-4 ovarian
  GI50: > 25 µM
  TGI: > 25 µM
UACC-62 melanoma
  GI50: > 25 µM
  TGI: > 25 µM
RXF 393 renal
  GI50: > 25 µM
  TGI: > 25 µM
SF-295 CNS
  GI50: > 25 µM
  TGI: > 25 µM
SNB-19 CNS
  GI50: > 25 µM
  TGI: > 25 µM
SF-268 CNS
  GI50: > 25 µM
  TGI: > 25 µM
SK-MEL-2 melanoma
  GI50: > 25 µM
  TGI: > 25 µM
786-0 renal
  GI50: > 25 µM
  TGI: > 25 µM
UO-31 renal
  GI50: > 25 µM
  TGI: > 25 µM

## O=Cc1ccc2c(c1-c1c(C=O)ccc3c1OCO3)OCO2
OVCAR-4 ovarian
  TGI: > 100 µM
UACC-62 melanoma
  TGI: > 100 µM
SF-295 CNS
  TGI: > 100 µM
SNB-19 CNS
  TGI: > 100 µM
SF-268 CNS
  TGI: > 100 µM
SK-MEL-2 melanoma
  TGI: > 100 µM
HCT-116 colon
  TGI: > 100 µM
786-0 renal
  TGI: > 100 µM
UO-31 renal
  TGI: > 100 µM

## O=C1OCC2C1C1c3ccccc3C(O)c3ccccc3C21 (stereo unspecified)
OVCAR-4 ovarian
  TGI: > 100 µM
UACC-62 melanoma
  TGI: > 100 µM
RXF 393 renal
  TGI: > 100 µM
SF-295 CNS
  TGI: > 100 µM
SF-268 CNS
  TGI: > 100 µM
SK-MEL-2 melanoma
  TGI: > 100 µM
HCT-116 colon
  TGI: > 100 µM
786-0 renal
  TGI: > 100 µM
UO-31 renal
  TGI: > 100 µM

## COc1ncc(-c2ccc3ncnc(Nc4cccc(Cl)c4)c3c2)cc1NS(=O)(=O)C1CC1
RXF 393 renal
  GI50: 0.519 µM
  TGI: > 100 µM
SNB-19 CNS
  GI50: 3.92 µM
  TGI: > 100 µM
SF-268 CNS
  GI50: 1.54 µM
  TGI: > 100 µM
786-0 renal
  GI50: 4.82 µM
  TGI: > 100 µM

## C#COc1cccc(Nc2c(C#N)cnc3ncc(NC(=O)CCl)cc23)c1
UACC-62 melanoma
  GI50: 35.7 µM
  TGI: > 62.5 µM
RXF 393 renal
  GI50: > 62.5 µM
  TGI: > 62.5 µM
SF-295 CNS
  GI50: > 62.5 µM
  TGI: > 62.5 µM
SNB-19 CNS
  GI50: 32.1 µM
  TGI: > 62.5 µM
SF-268 CNS
  GI50: 20.6 µM
  TGI: > 62.5 µM
SK-MEL-2 melanoma
  GI50: > 62.5 µM
  TGI: > 62.5 µM
HCT-116 colon
  GI50: 14.8 µM
  TGI: > 62.5 µM
786-0 renal
  GI50: 36.6 µM
  TGI: > 62.5 µM
UO-31 renal
  GI50: 35.1 µM
  TGI: > 62.5 µM

## OCc1ccn2c1[C@@H](O)CC2
OVCAR-4 ovarian
  TGI: > 100 µM
UACC-62 melanoma
  TGI: > 100 µM
RXF 393 renal
  TGI: > 100 µM
SF-295 CNS
  TGI: > 100 µM
SNB-19 CNS
  TGI: > 100 µM
SF-268 CNS
  TGI: > 100 µM
SK-MEL-2 melanoma
  TGI: > 100 µM
HCT-116 colon
  TGI: > 100 µM
786-0 renal
  TGI: > 100 µM

## CNS(=O)(=O)NNS(=O)(=O)c1ccc(Br)cc1
OVCAR-4 ovarian
  TGI: > 100 µM
UACC-62 melanoma
  TGI: > 100 µM
RXF 393 renal
  TGI: > 100 µM
SNB-19 CNS
  TGI: > 100 µM
SF-268 CNS
  TGI: > 100 µM
SK-MEL-2 melanoma
  TGI: > 100 µM
HCT-116 colon
  TGI: > 100 µM
786-0 renal
  TGI: > 100 µM
UO-31 renal
  TGI: > 100 µM

## CCCO/S(=N\S(=O)(=O)c1ccccc1)c1ccccc1[N+](=O)[O-] (stereo unspecified)
OVCAR-4 ovarian
  TGI: > 100 µM
UACC-62 melanoma
  TGI: > 100 µM
SF-295 CNS
  TGI: > 100 µM
SNB-19 CNS
  TGI: > 100 µM
SF-268 CNS
  TGI: > 100 µM
SK-MEL-2 melanoma
  TGI: > 100 µM
HCT-116 colon
  TGI: > 100 µM
786-0 renal
  TGI: > 100 µM
UO-31 renal
  TGI: > 100 µM

## CCOc1ccncc1[N+](=O)[O-]
UACC-62 melanoma
  TGI: > 100 µM
RXF 393 renal
  TGI: > 100 µM
SF-295 CNS
  TGI: > 100 µM
SNB-19 CNS
  TGI: > 100 µM
SF-268 CNS
  TGI: > 100 µM
SK-MEL-2 melanoma
  TGI: > 100 µM
HCT-116 colon
  TGI: > 100 µM
786-0 renal
  TGI: > 100 µM
UO-31 renal
  TGI: > 100 µM

## N#CC1=C(N)Oc2cc(O)ccc2C1c1cccc2ccccc12 (stereo unspecified)
OVCAR-4 ovarian
  GI50: 13.1 µM
  TGI: 31.5 µM
UACC-62 melanoma
  GI50: 12.6 µM
  TGI: 27.3 µM
SF-295 CNS
  GI50: 7.28 µM
  TGI: 25.6 µM
SNB-19 CNS
  GI50: 16.3 µM
  TGI: 37.3 µM
SF-268 CNS
  GI50: 14.5 µM
  TGI: 40.4 µM
SK-MEL-2 melanoma
  GI50: 11.7 µM
  TGI: 24.3 µM
HCT-116 colon
  GI50: 6.52 µM
  TGI: 25.7 µM
786-0 renal
  GI50: 13.4 µM
  TGI: 29.8 µM
UO-31 renal
  GI50: 12.3 µM
  TGI: 25.8 µM
